Publication PMC9533460 (RSC Chemical Biology, 2022)

Experiments:
[1] = molecular target: T1, homoserine-dehydrogenase (HD) (Pseudomonas alvandae, UniProt P0DXC5); assay: NADH formation; assay type: biochemical; details: homoserine as co-substrate
T1 sequence (P0DXC5 1-352): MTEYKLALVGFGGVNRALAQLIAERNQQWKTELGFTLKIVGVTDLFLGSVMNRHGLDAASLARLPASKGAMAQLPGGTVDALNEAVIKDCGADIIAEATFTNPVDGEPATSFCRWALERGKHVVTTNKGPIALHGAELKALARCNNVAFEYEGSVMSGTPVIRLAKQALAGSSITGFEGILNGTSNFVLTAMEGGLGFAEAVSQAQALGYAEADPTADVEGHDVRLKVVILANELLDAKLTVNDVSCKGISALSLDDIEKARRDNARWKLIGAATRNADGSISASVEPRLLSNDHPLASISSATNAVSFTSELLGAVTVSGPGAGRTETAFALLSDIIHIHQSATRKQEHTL

[2] = molecular target: T2, canavanine-γ-lyase (CanγL); aminotransferase AT (Pseudomonas alvandae, UniProt P0DXC4); assay: UV/Vis spectra of the enzyme reaction; assay type: binding; details: covalent (internal aldimine with K213); canavanine as substrate
T2 sequence (P0DXC4 1-400): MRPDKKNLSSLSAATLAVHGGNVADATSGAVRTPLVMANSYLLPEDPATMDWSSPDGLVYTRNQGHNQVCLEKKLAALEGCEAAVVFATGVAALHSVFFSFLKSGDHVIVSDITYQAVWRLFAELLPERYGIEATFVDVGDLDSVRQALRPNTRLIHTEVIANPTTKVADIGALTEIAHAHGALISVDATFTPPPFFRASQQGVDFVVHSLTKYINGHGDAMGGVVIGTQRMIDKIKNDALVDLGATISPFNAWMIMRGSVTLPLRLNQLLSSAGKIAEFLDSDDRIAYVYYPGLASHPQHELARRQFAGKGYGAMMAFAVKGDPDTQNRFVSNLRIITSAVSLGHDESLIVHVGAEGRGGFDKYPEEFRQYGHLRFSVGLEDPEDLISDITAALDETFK

[3] = molecular target: T3, aldehyde-dehydrogenase 1 (AH) (Pseudomonas alvandae, UniProt P0DXC7); assay: 1H-NMR of coupled reaction homoserine to fumarate; assay type: biochemical; details: aspartate semialdehyde formed in situ from homoserine by HD; with AAL
T3 sequence (P0DXC7 1-470): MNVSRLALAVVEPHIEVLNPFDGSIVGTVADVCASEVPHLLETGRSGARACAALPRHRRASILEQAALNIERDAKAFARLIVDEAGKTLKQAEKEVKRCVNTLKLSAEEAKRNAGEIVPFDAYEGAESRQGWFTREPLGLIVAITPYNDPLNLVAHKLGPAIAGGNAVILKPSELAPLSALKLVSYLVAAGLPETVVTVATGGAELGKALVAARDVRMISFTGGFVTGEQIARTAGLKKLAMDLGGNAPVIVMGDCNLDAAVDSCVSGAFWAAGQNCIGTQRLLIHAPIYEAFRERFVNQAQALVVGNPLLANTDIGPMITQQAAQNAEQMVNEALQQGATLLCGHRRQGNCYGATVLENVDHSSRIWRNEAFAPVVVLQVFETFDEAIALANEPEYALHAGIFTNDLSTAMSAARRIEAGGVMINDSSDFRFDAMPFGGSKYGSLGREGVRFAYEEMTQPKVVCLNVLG

[4] = molecular target: T4, aldehyde-dehydrogenase 2 (AC) (Pseudomonas alvandae, UniProt P0DXC6); assay: 1H-NMR of coupled reaction homoserine to fumarate; assay type: biochemical; details: aspartate semialdehyde formed in situ from homoserine by HD; with AAL
T4 sequence (P0DXC6 1-485): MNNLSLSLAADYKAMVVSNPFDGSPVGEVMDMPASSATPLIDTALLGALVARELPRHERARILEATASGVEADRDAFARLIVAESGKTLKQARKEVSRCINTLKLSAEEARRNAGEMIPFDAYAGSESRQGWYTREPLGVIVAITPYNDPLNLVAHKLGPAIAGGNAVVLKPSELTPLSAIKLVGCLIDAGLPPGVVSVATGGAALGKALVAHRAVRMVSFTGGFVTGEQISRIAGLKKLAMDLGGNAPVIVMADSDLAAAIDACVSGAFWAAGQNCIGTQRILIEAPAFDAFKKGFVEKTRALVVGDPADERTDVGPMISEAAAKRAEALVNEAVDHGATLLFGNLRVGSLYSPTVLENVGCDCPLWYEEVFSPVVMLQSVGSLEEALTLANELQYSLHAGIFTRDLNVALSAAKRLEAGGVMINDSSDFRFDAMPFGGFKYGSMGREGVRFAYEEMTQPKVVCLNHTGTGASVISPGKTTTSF

[5] = molecular target: T5, ammonium–aspartate–lyase (AAL) (Pseudomonas alvandae, UniProt P0DXC8); assay: 1H-NMR of coupled reaction homoserine to fumarate; assay type: biochemical; details: aspartate formed in situ by HD with AH or AC
T5 sequence (P0DXC8 1-474): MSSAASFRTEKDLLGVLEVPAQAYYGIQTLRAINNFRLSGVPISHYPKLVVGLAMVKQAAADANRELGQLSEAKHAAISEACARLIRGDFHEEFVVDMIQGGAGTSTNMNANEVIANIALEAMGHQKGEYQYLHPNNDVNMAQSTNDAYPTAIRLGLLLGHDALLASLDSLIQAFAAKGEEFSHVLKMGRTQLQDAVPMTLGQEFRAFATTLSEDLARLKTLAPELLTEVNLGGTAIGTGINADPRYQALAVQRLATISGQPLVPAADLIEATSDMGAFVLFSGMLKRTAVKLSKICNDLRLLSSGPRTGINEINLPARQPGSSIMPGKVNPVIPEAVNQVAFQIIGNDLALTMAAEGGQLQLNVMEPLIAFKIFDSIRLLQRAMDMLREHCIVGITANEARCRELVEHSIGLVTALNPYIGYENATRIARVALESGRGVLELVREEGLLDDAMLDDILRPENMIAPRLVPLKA

[6] = molecular target: T1, homoserine-dehydrogenase (HD); assay: NADH formation; assay type: biochemical; details: NAD+ as co-substrate

In the case of `NC(=O)c1ccc[n+]([C@@H]2O[C@H](COP(=O)(O)OP(=O)(O)OC[C@H]3O[C@@H](n4cnc5c(N)ncnc54)[C@H](O)[C@@H]3O)[C@@H](O)[C@H]2O)c1` [NAD+], the NADH formation [1] is reported as “the reaction of HD was only dependent on the cofactor NAD^+”.

With `Cc1ncc(COP(=O)(O)O)c(C=O)c1O` [PLP] the “UV/Vis spectra of the enzyme reaction; K213A comparison” value [2] was “Time-dependent increase of presumed aldimine and quinonoid peaks were observed for the wt enzyme”.

`N[C@@H](CC=O)C(=O)O` [aspartate semialdehyde] was tested, and the “1H-NMR of coupled reaction homoserine to fumarate” value (“1H-NMR … to fumarate” below) [3] was “purified HD with either of the two aldehyde-dehydrogenases AH or AC and AAL” and the “1H-NMR … to fumarate” value [4] was “purified HD with either of the two aldehyde-dehydrogenases AH or AC and AAL”.

With `N[C@@H](CC(=O)O)C(=O)O` [aspartate] the “1H-NMR … to fumarate” value [5] was “AH or AC and AAL the formation of fumarate via aspartate was observed”.

`N[C@@H](CCO)C(=O)O` [homoserine] was tested, and the “NADH formation; 1H-NMR of the coupled reaction” value [6] was “homoserine-dehydrogenase (HD) which catalyzes the conversion of homoserine and NAD+”.
